Where “and” joins values, the source holds several entries; their conditions need not be identical. Equal values may be shown once. Read-outs that look alike come from different tables or passages of the source.
Columns and labels:
Rac1 = target: T1, Rac1 (Homo sapiens, UniProt P63000); assay: Tiam1-catalyzed guanine nucleotide exchange of Rac1; assay type: biochemical; conditions: in the presence of Tiam1; read-out: IC50, Rac1 guanine nucleotide exchange reaction
T1 construct: GST (cleaved yes); made in house; host or cells: E. coli
Description: Rac1 was expressed in E. coli as a GST fusion protein using the vector pGEX2T in accordance with previously described methods [Self and Hall, Meth. Enzymol. 256:3 (1995)]. Purified thrombin-cleaved Rac1 protein was used in the assay.
The Tiam1 DH-PH domain expressed as a fusion protein containing a carboxy terminal 6XHis tag using the plasmid pET28a described by Rossman and Campbell, Meth. Enzymol. 325:25 (2000).
The Tiam1-catalyzed exchange of GDP for GTP of Rac1 was carried out essentially according to the procedure described by Crompton et al., J. Biol.Chem. 275(33):25751 (2000). GDP-bound Rac1 was incubated with [α^32P]-labeled GTP, in the presence of Tiam1 and nucleotide exchange was monitored by following the increase in radioactivity bound to Rac1. Free radioactivity was removed by placing the reaction mixture in the well of a 96-well plate and filtering out the fraction of [α^32P]GTP that is not bound to Rac1. During the screen for the nucleotide exchange antagonists, the compounds were used at 10 μM concentration. The compounds analyzed by the screening methods are further described below.
Compounds that inhibit the Rac1 guanine nucleotide exchange reaction by at least 50% of the control were obtained. The IC50 value of several of the compounds were determined for the guanine nucleotide exchange reaction of Rac1, in the presence of Tiam1.

CD11b (Mac-1) = target: T2, CD11b (Mac-1) (Homo sapiens, UniProt P11215); assay: CD11b-mediated neutrophil adhesion to fibrinogen; assay type: cell-based
T2 construct: endogenous in cells; host or cells: neutrophils from fresh human blood
Description: The adhesion assay described above for CD18/CD11b-(Mac-1)-mediated adhesion of HL-60 cells to ICAM-1 was carried out with the following modifications. Each well was coated overnight at 4° C. with 50 μl of glycophorin (10 μg/ml), fibrinogen (5 μg/ml) or with anti-CD18 monoclonal antibody (22F12C, 5 μg/ml) and anti-CD11b monoclonal antibody (44AACB, 5 μg/ml) in 50 mM bicarbonate buffer (pH 9.6). Plates were blocked with 1% human serum albumin and no blocking antibody was used. Neutrophils were isolated from fresh heparin whole human blood by density gradient centrifugation and 100 μl of the cells (4×10^6 cells/ml) in adhesion buffer was added to each well. Plates were incubated at 37° C. for 10 minutes.

α2β1 = target: T3, α2β1 (Homo sapiens, UniProt P05556+P17301); assay: Jurkat cell adhesion to rat type I collagen; assay type: cell-based; conditions: Jurkat cells, PMA
T3 construct: endogenous in cells; host or cells: Jurkat cells
T3 sequence (P17301 30-1181): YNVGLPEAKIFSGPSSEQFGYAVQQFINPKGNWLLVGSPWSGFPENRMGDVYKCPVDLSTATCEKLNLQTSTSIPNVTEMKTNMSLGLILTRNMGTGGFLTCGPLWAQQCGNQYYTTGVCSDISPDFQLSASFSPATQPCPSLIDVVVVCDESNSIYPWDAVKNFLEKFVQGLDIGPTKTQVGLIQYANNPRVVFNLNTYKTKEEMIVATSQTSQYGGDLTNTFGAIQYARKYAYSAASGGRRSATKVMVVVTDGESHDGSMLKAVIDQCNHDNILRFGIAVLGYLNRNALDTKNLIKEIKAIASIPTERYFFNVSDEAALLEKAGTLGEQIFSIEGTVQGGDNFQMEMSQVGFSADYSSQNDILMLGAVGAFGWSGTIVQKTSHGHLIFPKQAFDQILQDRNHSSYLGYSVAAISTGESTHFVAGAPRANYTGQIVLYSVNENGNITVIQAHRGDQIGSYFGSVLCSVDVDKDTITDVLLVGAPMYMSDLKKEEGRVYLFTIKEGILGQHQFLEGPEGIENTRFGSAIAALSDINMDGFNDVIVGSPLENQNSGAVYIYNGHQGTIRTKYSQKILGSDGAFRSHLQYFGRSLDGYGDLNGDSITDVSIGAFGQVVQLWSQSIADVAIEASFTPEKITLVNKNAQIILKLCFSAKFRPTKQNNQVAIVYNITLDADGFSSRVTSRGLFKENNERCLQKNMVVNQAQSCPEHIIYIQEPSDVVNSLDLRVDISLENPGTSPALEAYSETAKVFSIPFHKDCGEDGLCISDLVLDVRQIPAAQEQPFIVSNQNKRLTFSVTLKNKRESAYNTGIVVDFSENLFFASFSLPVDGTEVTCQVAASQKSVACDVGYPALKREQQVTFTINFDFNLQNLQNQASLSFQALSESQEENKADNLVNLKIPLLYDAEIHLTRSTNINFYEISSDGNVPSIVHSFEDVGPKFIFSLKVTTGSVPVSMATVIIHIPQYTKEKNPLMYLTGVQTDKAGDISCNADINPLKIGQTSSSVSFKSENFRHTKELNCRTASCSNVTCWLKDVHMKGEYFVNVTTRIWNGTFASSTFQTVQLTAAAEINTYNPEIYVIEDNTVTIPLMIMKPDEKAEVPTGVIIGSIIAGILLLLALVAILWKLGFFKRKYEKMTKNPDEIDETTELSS
T3 sequence (P05556 21-798 partner): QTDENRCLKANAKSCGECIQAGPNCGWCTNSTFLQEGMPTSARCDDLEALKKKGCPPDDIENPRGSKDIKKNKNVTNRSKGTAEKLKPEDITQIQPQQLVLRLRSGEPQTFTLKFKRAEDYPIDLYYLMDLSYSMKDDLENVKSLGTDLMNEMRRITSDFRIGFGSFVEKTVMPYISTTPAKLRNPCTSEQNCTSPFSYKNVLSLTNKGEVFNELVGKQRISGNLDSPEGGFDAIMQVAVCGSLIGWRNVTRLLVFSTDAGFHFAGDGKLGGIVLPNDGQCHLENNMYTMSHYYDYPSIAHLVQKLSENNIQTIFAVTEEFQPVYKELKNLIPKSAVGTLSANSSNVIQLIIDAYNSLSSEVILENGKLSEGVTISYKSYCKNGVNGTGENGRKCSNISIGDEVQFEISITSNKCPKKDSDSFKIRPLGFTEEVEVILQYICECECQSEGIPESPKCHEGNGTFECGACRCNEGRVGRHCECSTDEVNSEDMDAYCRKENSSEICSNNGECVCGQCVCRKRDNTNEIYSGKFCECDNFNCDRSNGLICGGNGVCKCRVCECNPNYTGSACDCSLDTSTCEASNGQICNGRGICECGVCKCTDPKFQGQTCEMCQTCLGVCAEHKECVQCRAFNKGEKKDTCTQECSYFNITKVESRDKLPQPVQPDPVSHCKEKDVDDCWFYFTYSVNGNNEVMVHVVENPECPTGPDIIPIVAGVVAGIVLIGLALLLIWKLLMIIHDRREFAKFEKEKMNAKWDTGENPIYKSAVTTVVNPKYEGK
Description: Binding studies using monoclonal antibodies to each of these integrins has shown that Jurkat cell adhesion to rat type I collagen is mediated predominantly through interaction with alpha2. […] The assay was carried out using a modification of a procedure previously described [Sadhu, et al., supra]. Immunlon 4 plates (Dynex Technologies, Chantilly, Va.) were coated overnight at 4° C. with (i) 50 μl rat type I collagen (Sigma) (20 μg/ml in CMF-PBS), (ii) anti-beta1 monoclonal antibody 3S3 (5 μg/ml) in bicarbonate buffer, pH 9.6, (iii) or bicarbonate buffer alone. Plates were washed once with 200 μl/well D-PBS and blocked with 1% BSA (100 μl/well) in D-PBS for 1 hr at room temperature. […] Adherent cells were fixed by additional of 50 μl/well 14% glutaraldehyde in D-PBS and incubation at room temperature for 2 hr. The plates were washed with dH2O and stained with 50 μl/well 0.5% crystal violet in 10% ethanol for 5 min at room temperature. The plates were washed in several changes of dH2O, after which 70% ethanol was added. Adherent cells were quantitated by determining absorbance at 570 nm and 410 nm using a […] 250 microplate spectrophotometer system (Molecular Devices, Sunnyvale Calif.). The percentage of cell binding was determined using the formula below. [formula] Data was normalized using the formula: [formula] […] These 21 compounds were further analyzed for specificity and toxicity. […] The assay was carried out in a manner similar to the collagen adhesion assay described above except that […] with VCAM-1/Ig instead of collagen. Binding to VCAM-1 was dependent on surface expression of α4β1.

Jurkat cells = assay: Jurkat cell toxicity (CellTiter 96 Aqueous One Solution); assay type: cell-based; conditions: four hr or 24 hr incubation
Description: For 21 compounds, toxicity of Jurkat cells was assessed following a four hr or 24 hr incubation. […] A two-fold serial dilution series of each compound was tested in a concentration range of 40 μM to 0.15 μM.

α4β1 = α4β1 (Homo sapiens, UniProt P05556+P13612); assay: Jurkat cell binding to immobilized VCAM-1/Ig; assay type: cell-based; parameters: endogenous in cells; host or cells: Jurkat cells; conditions: Jurkat cells; tested 0.15 μM to 20 μM; read-out: α7β1/VCAM EC50
α4β1, sequence (P13612 34-1032): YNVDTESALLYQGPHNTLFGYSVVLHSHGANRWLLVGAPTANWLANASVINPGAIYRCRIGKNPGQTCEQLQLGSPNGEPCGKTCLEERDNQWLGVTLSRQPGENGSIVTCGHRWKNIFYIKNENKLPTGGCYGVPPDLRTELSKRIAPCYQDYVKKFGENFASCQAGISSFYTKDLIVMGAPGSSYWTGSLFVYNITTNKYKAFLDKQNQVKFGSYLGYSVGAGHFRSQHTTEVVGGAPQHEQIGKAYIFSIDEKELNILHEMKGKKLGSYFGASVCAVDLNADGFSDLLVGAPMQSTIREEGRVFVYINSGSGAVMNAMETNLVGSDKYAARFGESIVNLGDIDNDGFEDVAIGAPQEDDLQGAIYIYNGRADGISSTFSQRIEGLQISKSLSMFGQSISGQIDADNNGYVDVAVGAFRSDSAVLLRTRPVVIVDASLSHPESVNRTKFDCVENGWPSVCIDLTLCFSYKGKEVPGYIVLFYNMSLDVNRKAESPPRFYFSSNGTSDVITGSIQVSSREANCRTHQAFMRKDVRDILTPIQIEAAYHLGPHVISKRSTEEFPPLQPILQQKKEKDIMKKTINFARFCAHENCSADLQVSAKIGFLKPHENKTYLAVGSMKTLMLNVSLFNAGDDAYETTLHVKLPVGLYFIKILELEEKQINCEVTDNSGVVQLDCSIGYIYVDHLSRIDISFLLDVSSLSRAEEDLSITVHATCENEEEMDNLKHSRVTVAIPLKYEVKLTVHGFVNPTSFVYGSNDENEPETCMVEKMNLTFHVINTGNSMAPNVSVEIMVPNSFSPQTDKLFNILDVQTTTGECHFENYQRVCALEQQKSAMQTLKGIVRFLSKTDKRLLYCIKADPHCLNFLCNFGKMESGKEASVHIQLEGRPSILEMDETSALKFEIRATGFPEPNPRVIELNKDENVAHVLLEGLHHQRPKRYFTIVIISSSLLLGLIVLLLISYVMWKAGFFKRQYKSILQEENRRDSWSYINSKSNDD
α4β1, sequence (P05556 21-798): as the sequence (P05556 21-798 partner) above
Description: These 21 compounds were further analyzed for specificity and toxicity. […] The assay was carried out in a manner similar to the collagen adhesion assay described above except that […] with VCAM-1/Ig instead of collagen. Binding to VCAM-1 was dependent on surface expression of α4β1.

[1] = target: iC3b (Homo sapiens (Human)) (UniProt P01024); assay: adhesion of COS-7 transfectants to immobilized iC3b
[2] = target: ICAM-1/Fc (Homo sapiens (Human)) (UniProt P05362); assay: adhesion of COS-7 transfectants to immobilized ICAM-1/Fc
[3] = after SAR efforts based on Cmpd S, read-out: IC50 (inhibition potency), neutrophil adhesion to fibrinogen
[4] = read-out: IC50, neutrophil adhesion to fibrinogen

Row | Molecule | EC50 (α2β1) | TOXICITY LD50 (Jurkat cells) | EC50 (α4β1) | further results
1 | CSc1ccc(-c2ccnc(N3CCC(C)CC3)c2)cc1C(C)(F)F [Cmpd AAA] |  |  |  | IC50 (Rac1): 3.5 µM
2 | CC(C)Sc1ccc(-c2ccnc(N3CCCC(C)(C)C3)c2)cc1C(F)(F)F [Cmpd AAB] |  |  |  | IC50 (Rac1): 4.7 µM
3 | CC(C)Sc1ccc(-c2ccnc(N3CCC(NC(=O)OC(C)(C)C)CC3)c2)cc1C(F)(F)F [Cmpd AAC] |  |  |  | IC50 (Rac1): 5 µM
4 | CC(CN(C)C)NCc1ccccc1Sc1ccc(C(C)(C)C)cc1 (centres unmarked) [Cmpd AA] |  |  |  | IC50 (CD11b (Mac-1); [3]): < 0.2 µM
5 | CC(C)(C)c1ccc(Sc2ccccc2CNCCN2CCCC2)cc1.O=C(O)C(F)(F)F.O=C(O)C(F)(F)F [Cmpd AB] | 13 µM | >40 µM | > 20 µM | 
6 | CN(C)CCCCNCc1ccccc1Sc1c(Cl)cccc1Cl [Cmpd AC] |  |  |  | IC50 (CD11b (Mac-1); [3]): < 0.2 µM
7 | CN(CCCNCc1ccccc1Sc1c(Cl)cccc1Cl)c1ccccc1.O=C(O)C(F)(F)F.O=C(O)C(F)(F)F [Cmpd AD] | 2 µM | 3 µM | > 20 µM | 
8 | CN(CCCNCc1ccccc1Sc1ccc2ccccc2c1)c1ccccc1.O=C(O)C(F)(F)F.O=C(O)C(F)(F)F [Cmpd AE] | 7 µM | 30 µM | > 20 µM | 
9 | O=C(O)C(F)(F)F.O=C(O)C(F)(F)F.c1ccc(CN2CCC(NCc3ccccc3Sc3ccc4ccccc4c3)CC2)cc1 [Cmpd AF] | 6 µM | 35 µM | > 20 µM | 
10 | CCN1CCCC1CNCc1ccccc1Sc1ccc2ccccc2c1.O=C(O)C(F)(F)F.O=C(O)C(F)(F)F (centres unmarked) [Cmpd AG] | 7 µM | 35 µM | > 20 µM | 
11 | O=C(O)C(F)(F)F.O=C(O)C(F)(F)F.c1ccc(Sc2ccc3ccccc3c2)c(CNCCN2CCCC2)c1 [Cmpd AH] | 9 µM | 38 µM | > 20 µM | 
12 | CN(C)CCCNCc1ccccc1Sc1ccc2ccccc2c1.O=C(O)C(F)(F)F.O=C(O)C(F)(F)F [Cmpd AI] | 6 µM | 33 µM | > 20 µM | 
13 | FC(F)(F)Oc1ccc(Sc2ccccc2CNC2CCN(Cc3ccccc3)CC2)cc1.O=C(O)C(F)(F)F.O=C(O)C(F)(F)F [Cmpd AJ] | 8 µM | 38 µM | > 20 µM | 
14 | CN(CCCNCc1ccccc1Sc1cccc(C(F)(F)F)c1)c1ccccc1.O=C(O)C(F)(F)F.O=C(O)C(F)(F)F [Cmpd AK] | 9 µM | 35 µM | > 20 µM | 
15 | CSc1ccc(Sc2ccccc2CNCCCN(C)c2ccccc2)cc1.O=C(O)C(F)(F)F.O=C(O)C(F)(F)F [Cmpd AL] | 8 µM | 20 µM | > 20 µM | 
16 | CCN1CCN(c2cc(-c3ccc(Sc4ccccc4C(C)C)c(C(F)(F)F)c3)ccn2)CC1.O=C(O)C(F)(F)F.O=C(O)C(F)(F)F [Cmpd AN] | 17 µM | >40 µM | > 20 µM | 
17 | CN(CCCNCc1ccccc1Sc1c(Cl)cccc1Cl)c1ccccc1 [Cmpd AY] |  |  |  | IC50 (Rac1): 1.9 µM
18 | CN(CCCNCc1ccccc1Sc1cc(Cl)cc(Cl)c1)c1ccccc1 [Cmpd AZ] |  |  |  | IC50 (Rac1): 3.1 µM
19 | O=C(/C=C/c1ccc(Sc2ccc(Cl)cc2Cl)c([N+](=O)[O-])c1)N1CCNCC1 [Cmpd A] | 14 µM | >40 µM | 17 µM | 
20 | O=C(/C=C/c1ccc(Sc2ccc3c(c2)OCCO3)c([N+](=O)[O-])c1)N1CCNCC1 [Cmpd B] | 17 µM | >40 µM | > 20 µM | 
21 | CC(C)c1ccc(Sc2ccc(N)cc2Cl)cc1 [Cmpd E] | 16 µM | >40 µM | > 20 µM | 

Row | Molecule | EC50 (α2β1) | TOXICITY LD50 (Jurkat cells) | EC50 (α4β1) | further results
22 | CC(C)c1ccccc1Sc1ccc(/C=C/C(=O)N2CCN(C(=O)OC(C)(C)C)C(CO)C2)cc1[N+](=O)[O-] (centres unmarked) [Cmpd F] |  |  |  | IC50 (CD11b (Mac-1); [4]): < 10 µM
23 | CC(=O)N1CCN(C(=O)C2CC2c2ccc(Sc3ccccc3C(C)C)c(Cl)c2Cl)CC1 (centres unmarked) [Cmpd G] | 16 µM | >40 µM | > 20 µM | 
24 | O=C(/C=C/c1ccc(Sc2cccc(N3CCC(N4CCCC4)CC3)c2)c(Cl)c1Cl)NCCCN1CCCC1=O [Cmpd J] | 8 µM | >40 µM | > 20 µM | 
25 | O=C(/C=C/c1ccc(Sc2ccccc2CN2CCOCC2)c(Cl)c1)N1CCOCC1 [Cmpd L] |  |  |  | IC50 (CD11b (Mac-1); [4]): < 10 µM
26 | Cl.O=C1CCCN1CCCNCc1ccc(Sc2cccc(Cl)c2Cl)c(Cl)c1 [Cmpd M] | 8 µM | 25 µM | > 20 µM | 
27 | CN(C)CCCCNCc1ccc(Sc2ccc(Cl)cc2Cl)c(Cl)c1 [Cmpd N] |  |  |  | IC50 (CD11b (Mac-1); [4]): < 10 µM
28 | CN(C)CCCCNCc1ccccc1Sc1ccc(Cl)cc1Cl [Cmpd O] |  |  |  | IC50 (CD11b (Mac-1); [4]): < 10 µM
29 | CN(C)CCN(Cc1ccc(Sc2ccc(Cl)cc2Cl)c(Cl)c1)C(=O)c1ccc(/C=C/C(=O)N2CCOCC2)cc1Cl [Cmpd P] |  |  |  | IC50 (CD11b (Mac-1); [4]): < 10 µM
30 | CN(C)CCN(Cc1ccccc1Sc1ccc(Cl)cc1Cl)C(=O)c1ccc(/C=C/C(=O)N2CCOCC2)cc1Cl [Cmpd Q] |  |  |  | IC50 (CD11b (Mac-1); [4]): < 10 µM
31 | CN(C)CCNCc1ccc(Sc2ccc(Cl)cc2Cl)c(Cl)c1 [Cmpd R] |  |  |  | IC50 (CD11b (Mac-1); [4]): < 10 µM
32 | CN(C)CCNCc1ccccc1Sc1ccc(Cl)cc1Cl [Cmpd S] |  |  |  | IC50 (CD11b (Mac-1); [4]): < 10 µM and 1 µM
33 | CN1CCCN(C(=O)/C=C/c2ccc(Sc3ccc4c(ccn4C)c3)c(Cl)c2Cl)CC1.O=C(O)C(F)(F)F [Cmpd T] | 4 µM | 25 µM | 15 µM | 
34 | CN1CCN(C(=O)/C=C/c2ccc(Sc3ccc(Cl)cc3Cl)c(Cl)c2)CC1 [Cmpd U] | 15 µM | >40 µM | > 20 µM | 
35 | COC(=O)N1CCN(C(=O)/C=C/c2ccc(Sc3ccccc3C(C)C)c([N+](=O)[O-])c2)CC1 [Cmpd V] |  |  |  | IC50 (CD11b (Mac-1); [4]): < 10 µM
36 | Nc1ccc(SCc2ccc(Cl)cc2Cl)c(Cl)c1 [Cmpd X] | 8 µM | 30 µM | > 20 µM | 
37 | N[C@@H]1Cc2ccccc2O[C@@H]1c1ccc2c(c1)CCO2 [Cmpd Y] | 7 µM | 25 µM | > 20 µM | 
38 | CD11b E336A / CD18 (from UniProt P11215) (receptor) |  |  |  | binding, % [1]: 4.3%; binding, % [2]: 0.7%
39 | CD11b F333A / CD18 (from UniProt P11215) (receptor) |  |  |  | binding, % [1]: 4.9%; binding, % [2]: 1.1%
40 | CD11b I332A / CD18 (from UniProt P11215) (receptor) |  |  |  | binding, % [1]: 205%; binding, % of wildtype levels (% of wildtype levels) [2]: 123
41 | CD11b Q327A / CD18 (from UniProt P11215) (receptor) |  |  |  | binding, % [1]: 140%; binding, % of wildtype levels (% of wildtype levels) [2]: 105
42 | CD11b V254A / CD18 (from UniProt P11215) (receptor) |  |  |  | binding, % [1]: 147%; binding, % of wildtype levels (% of wildtype levels) [2]: 115
